From ChEMBL document CHEMBL4706483, “Discovery of novel phosphatidylcholine-specific phospholipase C drug-like inhibitors as potential anticancer agents” (Eur J Med Chem, 2020)
The source made the active and inactive calls. No cut-off for these calls is given here.

Biological target: Phospholipase C (Bacillus cereus) (UniProt P09598)
Assay: Inhibition of recombinant Bacillus cereus N-terminal His6-tagged full length PC-PLC 3C Protease cleavage site expressed in Escherichia coli BL21(DE3) cells at 10 uM using phosphatidylcholine as substrate by amplex red assay relative to control

Phospholipase C (Bacillus cereus), sequence (P09598 whole entry, looked up): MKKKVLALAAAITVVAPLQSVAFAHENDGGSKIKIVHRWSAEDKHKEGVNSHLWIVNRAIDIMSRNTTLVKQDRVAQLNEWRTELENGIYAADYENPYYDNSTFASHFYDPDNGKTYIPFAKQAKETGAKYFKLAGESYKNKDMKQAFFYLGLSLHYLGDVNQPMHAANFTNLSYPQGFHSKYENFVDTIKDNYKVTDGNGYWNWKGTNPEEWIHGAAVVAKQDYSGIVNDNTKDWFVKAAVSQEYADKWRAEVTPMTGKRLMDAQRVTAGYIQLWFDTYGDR

| SMILES | inhibition |
| --- | --- |
| CN1CCN(c2ccc(NCc3cccc(Br)c3)cc2C(=O)O)CC1 | inactive |
| O=C(O)c1ccccc1N1CCOCC1 | inactive |
| O=C(O)c1cc(NCc2ccccc2)ccc1N1CCOCC1 | 67% |
| COc1cccc(C(=O)Nc2ccc(O)cc2C(=O)O)c1 | 47% |
| COc1cc(C2NC(C(=O)O)Cc3c2[nH]c2ccccc32)cc(OC)c1O (stereo not drawn) | 60% |
| O=C(O)c1cc(NCc2ccccc2Cl)ccc1N1CCOCC1 | 89% |
| CSc1ccc(CNc2ccc(N3CCOCC3)c(C(=O)O)c2)cc1 | inactive |
| O=C(O)c1cccc(NS(=O)(=O)c2ccc(C3CCCCC3)cc2)c1 | 25% |
| O=C(O)c1cc(NCc2ccc(Cl)cc2Cl)ccc1N1CCOCC1 | 65% |
| Cc1[nH]c2ccc(Cl)cc2c1CC(=O)O | 65% |
| CN(C)c1ccc(C2NC(C(=O)O)Cc3c2[nH]c2ccccc32)cc1 (stereo not drawn) | 43% |
| Cc1[nH]c2ccc(C(=O)O)cc2c1CC(=O)O | 60% |
| O=C(O)C1Cc2c([nH]c3ccccc23)C(c2ccc(O)c(O)c2)N1 (stereo not drawn) | 75% |
| O=C(O)c1cc(NCc2ccccc2C(F)(F)F)ccc1N1CCOCC1 | inactive |
| O=C(O)C1Cc2c([nH]c3ccccc23)C(c2ccc(Cl)cc2Cl)N1 (stereo not drawn) | 44% |
| O=C(O)c1cc(NCc2cccc(Cl)c2)ccc1N1CCOCC1 | 89% |
| O=C(O)C1Cc2c([nH]c3ccccc23)C(c2ccc(C(F)(F)F)cc2)N1 (stereo not drawn) | 37% |
| O=C(O)c1cc(NCc2cccc(Br)c2)ccc1N1CCOCC1 | 80% |
